Experimental findings from BindingDB's records for patent US20240083872 (Shionogi, 2024) are described below.

Test [1] has as its target T1, 5-hydroxytryptamine receptor 2C (Homo sapiens, UniProt P28335).
T1 sequence (P28335 whole entry): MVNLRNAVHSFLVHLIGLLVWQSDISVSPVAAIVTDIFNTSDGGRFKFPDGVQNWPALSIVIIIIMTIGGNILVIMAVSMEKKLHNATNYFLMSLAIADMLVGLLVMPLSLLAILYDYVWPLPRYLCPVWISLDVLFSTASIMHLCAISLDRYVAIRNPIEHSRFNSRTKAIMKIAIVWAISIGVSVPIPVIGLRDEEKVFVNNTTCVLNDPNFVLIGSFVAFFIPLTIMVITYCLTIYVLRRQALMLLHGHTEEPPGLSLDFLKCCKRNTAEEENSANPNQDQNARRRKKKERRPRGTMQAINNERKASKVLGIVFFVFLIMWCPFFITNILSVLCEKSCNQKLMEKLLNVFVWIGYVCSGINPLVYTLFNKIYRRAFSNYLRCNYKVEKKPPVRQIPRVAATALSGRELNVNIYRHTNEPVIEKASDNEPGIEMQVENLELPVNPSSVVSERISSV
Briefly: 5-HT2C Receptor Binding Inhibition Assay. As for the experimental part: (§1) Binding Test of the Compound According to the Present Invention:In advance, 0.5 μL of the compound solution dissolved in DMSO was dispensed into a microplate, and the cell membrane and the hot ligand were diluted with Assay buffer, respectively. Then, the Assay buffer containing the diluted cell membrane was dispensed into a microplate at 50 μL/well. Then, the radioactive ligand solution was dispensed into a microplate at 50 μL/well, and the plate was sealed. Then, it was allowed to stand at 37° C. for 2 hours. During this period, 50 mmol/L Tris-HCl (pH 7.4) was dispensed into a GF/B UniFilter plate at 50 μL/well and allowed to stand at 4° C. for 1 hour or longer. After that, filtration was performed with Cell harvester (PerkinElmer). After the GF/B UniFilter plate was dried at room temperature, MicroScinti 20 was dispensed into the GF/B UniFilter plate at 50 μL/well, and the plate was sealed. […] The radioactivity of [3H]-Mesulergine bound to the […] receptor was measured using Microbeta2 (PerkinElmer) at a measurement time of 1 min/well. The non-specific binding was calculated from the radioactivity of [3H]-Mesulergine in the presence of 500 μmol/L Serotonin HCl with the unlabeled ligand, and the total binding was calculated from the radioactivity of [3H]-Mesulergine in the absence of the compound according to the present invention (Vehicle).

Test [2] has as its target 5-hydroxytryptamine receptor 2A (Homo sapiens, UniProt P28223). Briefly: 5-HT2A Receptor Binding Inhibition Assay. As for the experimental part: as §1, with “Present Invention: In” for “Present Invention:In”, “at room temperature (25° C.)” for “at 37° C.”, “for 1.5” for “for 2”, “(PerkinElmer).” for “(PerkinElmer). After the GF/B UniFilter plate was dried at room temperature, MicroScinti 20 was dispensed into the GF/B UniFilter plate at 50 μL/well, and the plate was sealed.”, “of [3H]-Ketanserin” for “of [3H]-Mesulergine”, “(Vehicle). Finally, the Ki value was calculated from the dose-response curve.” for “(Vehicle).”

Sequence of 5-hydroxytryptamine receptor 2A (P28223 whole entry): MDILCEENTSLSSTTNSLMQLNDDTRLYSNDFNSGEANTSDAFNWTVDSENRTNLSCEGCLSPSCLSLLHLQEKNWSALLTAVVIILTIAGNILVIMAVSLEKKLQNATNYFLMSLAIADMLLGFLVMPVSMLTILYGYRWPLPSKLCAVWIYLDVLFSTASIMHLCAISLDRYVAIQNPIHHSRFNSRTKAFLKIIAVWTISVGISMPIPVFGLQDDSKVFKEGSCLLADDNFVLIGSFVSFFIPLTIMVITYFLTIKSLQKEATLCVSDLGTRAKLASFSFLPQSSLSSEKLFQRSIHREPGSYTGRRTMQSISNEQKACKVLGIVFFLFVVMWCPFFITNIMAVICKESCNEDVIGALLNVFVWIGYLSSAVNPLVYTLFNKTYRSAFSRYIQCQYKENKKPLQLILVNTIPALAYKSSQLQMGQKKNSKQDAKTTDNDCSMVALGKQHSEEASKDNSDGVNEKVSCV

A word on the Ki: it is a dissociation constant, usually derived from enzyme kinetics or from competition with a known ligand. Low values mean tighter binding, high ones weaker binding. For `CC(C)CNc1ccc(CN(Cc2ccn(C)n2)C(=O)NC2CCN(C)CC2)cc1` [US20240083872, Compound I-030], the figures for the Ki in test [1] and in test [2] were 7.76 nM and 2.17 nM, respectively.
